From ChEMBL document CHEMBL1201862, “PubChem BioAssay data set” (2004)
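Five compound concentrations were applied to cells in 96-well plates for 48 hours; endpoints were derived by simple linear interpolation of the resulting dose-response curve. At the GI50, growth is halved.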 The source made the active and inactive calls. Rule as the data show it: active = GI50 up to about 1.1 µM and inactive = higher.

Key:
Assay in all cases: growth of human tumour cells (NCI), 48 h
[1] = tested on: IGROV-1
[2] = tested on: KM12
[3] = tested on: SF-539
[4] = tested on: SF-268
[5] = tested on: HCT-116
[6] = tested on: NCI-H23
[7] = tested on: RXF 393
[8] = tested on: PC-3
[9] = tested on: UACC-257
[10] = tested on: SK-MEL-28
[11] = tested on: HT-29
[12] = tested on: NCI-H522
[13] = tested on: SK-MEL-5
[14] = tested on: Hs-578T
[15] = tested on: HOP-92
[16] = tested on: OVCAR-3
[17] = tested on: SNB-19
[18] = tested on: OVCAR-4

Measured: GI50

O=C(Nc1cccc(Cl)c1)Nn1cnnc1
inactive: [1] > 100 µM | [2] > 100 µM | [3] > 100 µM | [4] > 100 µM | [5] > 100 µM | [6] > 100 µM | [7] > 100 µM | [8] > 100 µM | [9] > 100 µM | [10] > 100 µM | [11] > 100 µM | [12] > 100 µM | [13] > 100 µM | [14] > 100 µM | [15] > 100 µM | [16] > 100 µM | [17] > 100 µM | [18] > 100 µM

N=C(N)N/N=C(/c1ccccc1)c1ccc(O)cc1O
inactive: [1] 25.1 µM | [2] 30.5 µM | [3] 18.5 µM | [4] 32.6 µM | [5] 29 µM | [6] 31.8 µM | [7] 45 µM | [8] 29 µM | [9] 35.6 µM | [10] 72.6 µM | [11] 19.7 µM | [12] 15.3 µM | [13] 25.8 µM | [14] 22 µM | [15] 36.6 µM | [16] 26.9 µM | [17] 40.6 µM | [18] 57 µM

O=c1[nH]ncc2[nH]c3c(c12)CCc1ccccc1-3
inactive: [1] 14.7 µM | [2] 28.2 µM | [3] 18.5 µM | [4] 32.1 µM | [5] 24.7 µM | [6] 39.4 µM | [7] 16.6 µM | [8] 27.2 µM | [9] 45.6 µM | [10] 39.9 µM | [11] 29.9 µM | [12] 21.5 µM | [13] 11 µM | [14] 10.4 µM | [15] 30.9 µM | [16] 28.2 µM | [17] 54.3 µM | [18] 32.1 µM

CC(=O)c1c2c(cc3c1CC1(Cc4cc5c(cc4C1)CCC5)C3)CCC2
inactive: [1] > 100 µM | [3] > 100 µM | [4] > 100 µM | [5] 75 µM | [6] > 100 µM | [7] > 100 µM | [8] > 100 µM | [9] 63.8 µM | [10] > 100 µM | [11] 78.2 µM | [12] > 100 µM | [13] > 100 µM | [14] > 100 µM | [15] > 100 µM | [16] > 100 µM | [17] > 100 µM | [18] > 100 µM

COC(=O)CC1C(COC(C)=O)OC(n2cc(C)c(=O)[nH]c2=O)C1OC(C)=O (stereo not drawn)
inactive: [1] > 100 µM | [2] > 100 µM | [3] > 100 µM | [4] > 100 µM | [5] > 100 µM | [6] > 100 µM | [7] > 100 µM | [8] > 100 µM | [9] > 100 µM | [10] > 100 µM | [11] > 100 µM | [12] > 100 µM | [13] > 100 µM | [14] 4.73 µM | [15] > 100 µM | [16] > 100 µM | [17] > 100 µM | [18] > 100 µM

O=[N+]([O-])c1ccc2nc(O)n[n+]([O-])c2c1
inactive: [1] > 100 µM | [2] > 100 µM | [3] > 100 µM | [4] > 100 µM | [5] > 100 µM | [6] > 100 µM | [7] > 100 µM | [8] > 100 µM | [9] > 100 µM | [10] > 100 µM | [11] > 100 µM | [12] > 100 µM | [13] > 100 µM | [14] > 100 µM | [15] > 100 µM | [16] > 100 µM | [17] > 100 µM | [18] > 100 µM

COc1ccc(C(=O)/C=C/c2ccc3c(c2)OCO3)c(OCc2ccccc2)c1
inactive: [1] 17.7 µM | [2] 4.83 µM | [3] 32.7 µM | [4] 6.76 µM | [5] 6.79 µM | [6] 24.3 µM | [7] 11 µM | [8] 11.6 µM | [9] > 63 µM | [10] > 100 µM | [11] 6.78 µM | [12] 9.68 µM | [13] 25.6 µM | [14] 7.82 µM | [15] > 78 µM | [16] 19.1 µM | [17] > 100 µM | [18] 15.1 µM

COc1ccc(/C=C/c2cnnc3ccccc23)cc1OC
inactive: [1] > 10 µM | [2] > 10 µM | [3] > 10 µM | [4] > 10 µM | [5] > 10 µM | [6] > 10 µM | [7] > 10 µM | [8] > 10 µM | [9] > 10 µM | [10] > 10 µM | [11] > 10 µM | [12] > 10 µM | [13] > 10 µM | [14] > 10 µM | [15] 3.7 µM | [16] > 10 µM | [17] > 10 µM | [18] > 10 µM

COC1(OC)CCc2c(sc3ncnc(Nc4cccc(Br)c4)c23)C1
inactive: [1] 16.7 µM | [2] 33.4 µM | [3] > 100 µM | [4] 69.5 µM | [5] 39.3 µM | [6] 35.4 µM | [7] 22.9 µM | [8] 43.3 µM | [9] 87.3 µM | [11] 20 µM | [12] 12.4 µM | [13] 30.9 µM | [14] > 100 µM | [15] 30.5 µM | [16] > 100 µM | [17] 35.5 µM | [18] 27.7 µM

CC1=NN(c2cccc(Cl)c2)C2(SCC(=O)N2c2nc3ccccc3s2)/C1=C\c1ccccc1 (stereo not drawn)
inactive: [1] 17.9 µM | [2] 16.1 µM | [3] 26.4 µM | [4] 21.4 µM | [5] 15.9 µM | [6] 20.2 µM | [7] 21.6 µM | [8] 23.6 µM | [9] 21.9 µM | [10] 27.5 µM | [11] 21 µM | [12] 14.6 µM | [13] 12.6 µM | [14] 18.4 µM | [15] 7.21 µM | [16] 20.8 µM | [18] 16.7 µM

O=c1[nH]cc(F)c(=O)[nH]1 [FLUOROURACIL]
inactive: [1] 14.3 µM | [2] 9.51 µM | [3] 1.33 µM | [4] 51.4 µM | [6] 12.2 µM | [7] 54.1 µM | [8] 50.6 µM | [9] 95.7 µM | [10] 50.2 µM | [12] 37 µM | [13] 11.6 µM | [14] 225 µM | [15] 162 µM | [16] 27.3 µM | [17] 116 µM | [18] 69.7 µM
